Results published in patent publication US20250025451A1, “TREATMENT OF CANCER WITH KDM4 INHIBITORS” (Celgene Corporation, priority 2021, published 2025).
pIC50: −log10 of the molar value. Values joined by “and” are separate entries in the source; they are usually repeats but may differ in a detail not shown here. Identical values can stand only once. Like-named read-outs stand apart in the source and are kept apart here.

What was measured:
[1] = test system: T002C patient-derived colon cancer organoid model; test: organoid colony formation assay, T002C; type: cell-based, human
Protocol: (§1) The IC50 values for Compound 1 inhibition of colony formation and viability were determined for the patient-derived colon cancer organoid models: SU60, T002C, SU62, SU34, SU103, T03SC, and SU106, patient-derived pancreatic cancer organoid models PA016SF, PA0143F, T016P, and T028P, and a patient-derived breast cancer organoid model FS5S3.
(§2) Colony formation and viability assays were performed in multiwell plates seeded with organoids using an in vitro culture system composed of a Matrigel layer, media containing a defined set of growth factors, and co-culture with Wnt3 A-secreting mouse embryonic fibroblasts. Assays were initiated by adding either DMSO as a negative control, or an inhibitor panobinostatat 100×IC50 concentration as a positive control, or serially diluted Compound 1. The cultures were incubated for 168 or 144 hours after which the number of viable organoids in each test well was assessed respectively using one of two detection methods: CTG or staining with calcein-AM followed by imaging and colony counting. Colony count or viability of cells treated with compound 1 was expressed as a percent of the negative control. Aggregated Percent of Control values were plotted against the corresponding Compound 1 concentration and the absolute IC50 value was determined from a non-linear regression curve as the concentration where inhibition was 50% of the control.

[2] = test system: SU62 patient-derived colon cancer organoid model; test: organoid colony formation assay, SU62; type: cell-based, human
Protocol: as §1, §2

[3] = test system: COH70 patient-derived triple negative breast cancer xenograft; test: in vivo efficacy, COH70 patient-derived triple negative breast cancer xenograft model; conditions: COH70 TNBC PDX; for % TGI: Day 36; for Median Tumor Volumes Diff.: Day 36 minus Day 1
Protocol: The therapeutic in vivo efficacy of Compound 1 was evaluated in SU60 colorectal cancer, KYSE-150 esophageal cancer, COH70 triple-negative breast cancer, GXA-3036 gastric adenocarcinoma and OCI-LY19 Diffuse Large B-Cell Non-Hodgkin's Lymphoma xenograft models. In all studies, efficacy was determined based on percent tumor growth inhibition (TGI), differences in mean tumor growth, and statistical assessment of differences in net tumor volume distributions on the day of TGI analysis between control and treated animals. Tolerability was assessed based on differences in mean body weights between control and treated animals over the course of the study.
The in vivo therapeutic efficacy and tolerability of Compound 1, administered orally as the free acid form in a PBS vehicle plus two equivalents of NaOH (final pH 10), was evaluated in a dose range study using the COH70 TNBC PDX model established in female NSG mice. Each mouse was inoculated subcutaneously in the abdomen with 2×10^6 COH70 tumor cells (0.2 ml) suspended in Matrigel. When the average tumor size reached ˜107 mm3, test animals were randomized into 5 groups consisting of 9 mice per group and treatments were initiated. Control mice received PBS (pH 10) vehicle PO QDx36. Treated mice received Compound 1 (dissolved in PBS+2 equivalents of NaOH, final pH 10) PO at 50, 40, 25, or 12.5 mg/kg QDx36. TGI was determined on Day 36 as (1−Difftreated/Diffcontrol)×100. Individual tumors were measured twice weekly in two dimensions using a caliper, and the tumor volumes (TV) in mm3 were calculated using the formula: TV=0.5 (l×w×h), where l, w, and h are the tumor length, width, and height in mm, respectively. Mean tumor volumes±SEM were calculated and plotted versus days of dosing (left panel). Body weights were measured twice weekly. Body weights±SEM were calculated and plotted versus days of dosing (right panel).

[4] = test system: tumorigenic CD44^High;EpCAM^+ cells of SU60 xenograft tumors; test: flow cytometry analysis of tumorigenic cell population after treatment of SU60 xenograft tumors; type: in vivo; conditions: NSG female mice, 40 mg/kg PO QD x21
Protocol: The ability of Compound 1 to affect tumorigenic potential was analyzed by flow cytometry analysis of the tumorigenic cell population and functional in vivo tumorigenicity assay (limiting dilution assay).
To assess the effect of Compound 1 on tumorigenic cell population, Compound 1 was used to treat SU60 xenograft tumors. NSG female mice engrafted with SU60 cells (7 mice each group) were administered Compound 1 at 40 mg/kg PO QD×21. The day after the last dose, three tumors nearest to the mean size from each group were dissociated and the single cells were used to perform: 1) flow cytometry analysis of the tumorigenic cell population and 2) functional in vivo tumorigenicity assay (limiting dilution assay). Flow Cytometry Analysis of Tumorigenic Cell Population after Compound 1 Treatment
The proportion of tumorigenic CD44^High;EpCAM^+ cells in the cell population was quantified by flow cytometry. […] Flow cytometry analysis performed on single cell isolated from 3 vehicle-treated and 3 Compound 1-treated tumors. P-value was determined with unpaired Student T-test.

[5] = test system: colorectal cancer organoid PDX models; test: culture-based viability inhibition assay, colorectal cancer organoid PDX models; type: cell-based; conditions: for Sensitive to Compound 1 (models sensitive/tested): sensitive = IC50<1 μM
Protocol: A panel of 13 colorectal cancer PDX models and 6 colorectal cancer organoid PDX models were tested for their sensitivity to Compound 1 in culture-based viability inhibition assays. The MSI-H status of the studied colorectal cancer cell lines and their respective mutations of the MMR path genes are shown in FIG. 19.

[6] = MSS (Organoid) colorectal cancer models

CC(C)c1ccc(N(C)c2ccc3c(c2)OCC[C@H]3CNc2cnccc2C(=O)O)cc1 [Compound 1, 3-({[(4R)-7-{methyl[4-(propan-2-yl)phenyl]amino}-3,4-dihydro-2H-1-benzopyran-4-yl]methyl}amino)pyridine-4-carboxylic acid] showed a pIC50 ([1]; Homo sapiens, T002C colorectal carcinoma model) greater than 6.82, a pIC50 ([1]; T002C human colorectal carcinoma organoid, 144 hrs, Colony Counts) of 7.66 and a pIC50 ([2]; Homo sapiens, SU62 colorectal carcinoma model) greater than 6.82. The pIC50 ([2]; SU62 human colorectal carcinoma organoid, 144 hrs, Colony Counts) was 6.83, the “tolerability (dose-dependent mean body weight changes)” value ([3]; female NSG mice, 12.5-50 mg/kg PO QD x36) was “well-tolerated” and the “mean body weight loss” value ([3]; female NSG mice, PO QD x36, over the course of the study) was 6.5%. For the same molecule, the “Median Tumor Volumes Day 36” value ([3]; female NSG mice, free acid 12.5 mg/kg PO QD x36) was 685 mm^3, the “Median Tumor Volumes Day 36” value ([3]; female NSG mice, free acid 25 mg/kg PO QD x36) was 524 mm^3 and the “Median Tumor Volumes Day 36” value ([3]; female NSG mice, free acid 40 mg/kg PO QD x36) was 282 mm^3. The “Median Tumor Volumes Day 36” value ([3]; female NSG mice, free acid 50 mg/kg PO QD x36) was 295 mm^3, the “% TGI” value ([3]; 12.5 mg/kg PO QD x36) was 57% and the “Median Tumor Volumes Diff.” value ([3]; 12.5 mg/kg PO QD x36) was 581 mm^3. The “% TGI” value ([3]; 25 mg/kg PO QD x36) was 68%, the “Median Tumor Volumes Diff.” value ([3]; 25 mg/kg PO QD x36) was 424 mm^3 and the “% TGI” value ([3]; 40 mg/kg PO QD x36) was 86%. For the same molecule, the “Median Tumor Volumes Diff.” value ([3]; 40 mg/kg PO QD x36) was 184 mm^3, the “% TGI” value ([3]; 50 mg/kg PO QD x36) was 86% and the “Median Tumor Volumes Diff.” value ([3]; 50 mg/kg PO QD x36) was 191 mm^3. For the same molecule, the “reduction of the proportion of tumorigenic cells (CD44^High;EpCAM^+) compared to vehicle control” value [4] was 2.5 fold, the pIC50 ([5]; MSI (Organoid) colorectal cancer models, read-out: IC50 (range over sensitive models)) was 6.83 to 7.66 and the “Sensitive to Compound 1 (models sensitive/tested)” value ([5]; MSI (Organoid) colorectal cancer models) was 3 out of 3 and 3/3. For the same molecule, the “Sensitive to Compound 1 (percent of models)” value [5, 6] was “(0%)”, the pIC50 ([5]; MSS (Organoid) colorectal cancer models, read-out: IC50) was less than 5.00 and the “Sensitive to Compound 1 (models sensitive/tested)” value [5, 6] was 0 out of 3 and 0/3.
